Laboratory results from US20090048301A1 (IMCLONE SYSTEMS INCORPORATED, priority 2003, published 2009).

Columns and labels:
[1] = tested on: A431, human epidermoid carcinoma cells; experiment: Cell cycle analysis (FACS), mitotic arrest in G2/M; type: cell-based; settings: Homo sapiens, A-431, 24 h, read-out: FACS Assay: concentration required to achieve inhibition in FACS assay
Method in brief: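 A431 cells, 500,000/well at treatment, exposed to compounds at 0.01–1 μM final (0.1% DMSO) for 24 h. Ethanol-fixed cells RNase-treated (1 μg/ml, 37° C., 15 min), stained with propidium iodide (50 μg/ml, 30 min, RT). DNA ploidy by flow cytometry; mitotic arrest scored as G2/M accumulation.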

bovine tubulin = experiment: In vitro tubulin polymerization assay (turbidity at 340 nm); type: biochemical; settings: 10 μM compound, 30 minute data point, vs 1% DMSO control
Method in brief: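 Percent inhibition derives from turbidity (340 nm) at 30 min relative to 1% DMSO controls, read every minute at 37° C. Polymerization mix: 3 mg/ml bovine tubulin, <3% MAPs, in PIPES pH 7 G-PEM with 1 mM GTP, 1 mM MgCl2, 5% glycerol; enhancers also detectable.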

[2] = tested on: A431 human cancer cell line; experiment: Sulphorhodamine B (SRB) growth inhibition assay; type: cell-based; settings: A-431, A431 cells, 48 hours, read-out: SRB Assay: μM required to inhibit tumor cell growth by 50% (GI50)
Description: The in vitro growth inhibition activity of the compounds was determined by the Sulphorhodamine B assay. (Skehan P, Storeng R, Scudiero D, Monks A, McMahon J, Vistica D, Warren J T, Bokesch H, Kenney S, Boyd M R. New colorimetric cytotoxicity assay for anticancer-drug screening. J Natl Cancer Inst 82, 1107-1112, 1990). Sulphorhodamine B binds to basic amino acids and stains proteins which can be eluted and detected spectrophotometically by measuring absorbance at 515 nm. The absorbance was indicative of the total protein content of the cells fixed to the walls of the plate well at a given time by trichloroacetic acid, which is a measure of the viable cell concentration.
The in vitro growth inhibition activity of the compounds was determined using a Sulphorhodamine B assay. See, Skehan et al., “New colorimetric cytotoxicity assay for anticancer-drug screening,” J. Natl. Cancer Inst., 82, 1107-1112, (1990). Sulphorhodamine B binds to basic amino acids and stains proteins which can be eluted and detected spectrophotometically by measuring absorbance at 515 nm. The absorbance indicates the total protein content of the cells fixed to the walls of the plate well at a given time by trichloroacetic acid, which is a measure of the viable cell concentration.
The reagents used in the assay can be purchased from commercial sources and include Sulphorhodamine B 0.4% (w/v) in 1% (v/v) acetic acid (Sigma Cat#S-1402); trichloroacetic acid 50% (w/v) in deionized water, working solution (Sigma Cat#T-9159); and trizma base (Tris) 10 mM working solution, pH 7.5 (Sigma Cat#T-7693).
The procedure was cared out over four days. In Day 1, the cells were seeded in a seed 10,000 cells/100 μL/well in 96 well plate in duplicates as per template. Also, seed cells in extra plate for time zero (To plate). Thereafter, the cells were incubated for 24 hours at 37° C. with 5% CO2.
On Day 2, the test compound was added to the cells at five log doses from 100 μM to 0.01 μM (Volume of addition=100 μL in 1% DMSO for all compound concentrations, Control treatment=1% DMSO).
The compounds were prepared by weighing the test compounds in 1.5 ml eppendorf tubes and calculating the volume of DMSO to be added to bring the concentration of the compound to 20 mM. Thereafter, a 20 mM stock was made and diluted by four 10 fold dilutions in DMSO to get 2, 0.2, 0.02 and 0.002 mM solutions. Each solution was diluted 100 times (10 μL to 1 ml medium) and a further addition to the culture plate (100 μL) to half the concentration of cells was made. The final well concentration for 20 mM stock was 100 μM and similarly with other test concentrations.
The cells were incubated for 48 hours at 37° C. with 5% CO2 and terminated by adding 50 μL of 50% cold trichloroacetic acid (10% to final). Thereafter, the cells were incubated for one hour at 4° C.
On Day 4, the cells were fixed to the wells by the addition of 50 μL of 50% cold trichloroacetic acid (10% to final) and incubated for 1 hour at 4° C. The supernatant was discarded by force inverting the plate into the sink followed by washing thrice with tap water and the plates are then air-dried. 100 μL SRB (0.4% in 1% acetic acid) was added to each well and the plates were incubated for 10 minutes at room temperature. Unbound dye was removed by force inverting the plate into the sink and washing thrice with 1% acetic acid. Thereafter, the plates were allowed to air dry.
Bound SRB was solubilized with 100 μL of 10 mM Tris, pH 7.4 and the absorbance was measured at a wavelength of 515 nm.
A sample set of calculations was performed as follows. The percentage growth was calculated by T-To/C-To X 100 if T>To and T-To/To X 100 if T<To, wherein T is Test OD (with compound), C is Control OD, To is Time Zero OD (cell growth at the time of drug addition). […]

GI50 [2] [µM] | Compound | minimal effective concentration [1] [µM] | Tubulin Assay: percent inhibition at 10 μM based on 30 minute data (bovine tubulin) [%]
5.5 | COc1cc(Nc2nnc(-c3cccnc3Nc3cc(OC)cc(OC)c3)[nH]2)cc(OC)c1 [Compound 1, (3,5-Dimethoxy-phenyl)-{3-[5-(3,5-dimethoxy-phenylamino)-4H-[1,2,4]triazol-3-yl]-pyridin-2-yl}-amine] | 0.1 | 45
0.7 | COc1cccc(Nc2nnc(-c3cccnc3Nc3cc(OC)cc(OC)c3)[nH]2)c1 [Compound 2, (3,5-Dimethoxy-phenyl)-{3-[5-(3-methoxy-phenylamino)-4H-[1,2,4]triazol-3-yl]-pyridin-2-yl}-amine] | 0.1 | 80
2.5 | COc1ccc(Nc2nnc(-c3cccnc3Nc3cc(OC)cc(OC)c3)[nH]2)cc1 [Compound 3, (3,5-Dimethoxy-phenyl)-{3-[5-(4-methoxy-phenylamino)-4H-[1,2,4]triazol-3-yl]-pyridin-2-yl}-amine] | 10 | 72
4 | COc1cc(Nc2ncccc2-c2nnc(Nc3ccc(C#N)cc3)[nH]2)cc(OC)c1 [Compound 4, 4-{5-[2-(3,5-Dimethoxy-phenylamino)-pyridin-3-yl]-4H-[1,2,4]triazol-3-ylamino}-benzonitrile] | 10 | 32
10 | COc1cc(Nc2ncccc2-c2nnc(Nc3cc(OC)ccc3OC)[nH]2)cc(OC)c1 [Compound 5, (3,5-Dimethoxy-phenyl)-{3-[5-(2,5-dimethoxy-phenylamino)-4H-[1,2,4]triazol-3-yl]-pyridin-2-yl}-amine] | 100 | 20
20 | COc1cc(Nc2ncccc2-c2nnc(Nc3ccc(N(C)C)cc3)[nH]2)cc(OC)c1 [Compound 6, (3,5-Dimethoxy-phenyl)-{3-[5-(4-dimethylamino-phenylamino)-4H-[1,2,4]triazol-3-yl]-pyridin-2-yl}-amine] | 10 | 35
15 | COc1cccc(Nc2nnc(-c3cccnc3Nc3ccc4c(c3)OCO4)[nH]2)c1 [Compound 7, Benzo[1,3]dioxol-5-yl-{3-[5-(3-methoxy-phenylamino)-4H-[1,2,4]triazol-3-yl]-pyridin-2-yl}-amine] | 10 | 47
0.25 | CN(C)c1ccc(Nc2nnc(-c3cccnc3Nc3ccc4c(c3)OCO4)[nH]2)cc1 [Compound 11, Benzo[1,3]dioxol-5-yl-{3-[5-(4-dimethylamino-phenylamino)-4H-[1,2,4]triazol-3-yl]-pyridin-2-yl}-amine] | 10 | 82
2 | COc1cccc(Nc2nnc(-c3cccnc3NCc3ccc4c(c3)OCO4)[nH]2)c1 [Compound 13, Benzo[1,3]dioxol-5-ylmethyl-{3-[5-(3-methoxy-phenylamino)-4H-[1,2,4]triazol-3-yl]-pyridin-2-yl}-amine] | 1 | 80
20 | COc1ccc(OC)c(Nc2nnc(-c3cccnc3NCc3ccc4c(c3)OCO4)[nH]2)c1 [Compound 14, Benzo[1,3]dioxol-5-ylmethyl-{3-[5-(2,5-dimethoxy-phenylamino)-4H-[1,2,4]triazol-3-yl]-pyridin-2-yl}-amine] | 100 | 24
0.2 | CN(C)c1ccc(Nc2nnc(-c3cccnc3NCc3ccc4c(c3)OCO4)[nH]2)cc1 [Compound 15, Benzo[1,3]dioxol-5-ylmethyl-{3-[5-(4-dimethylamino-phenylamino)-4H-[1,2,4]triazol-3-yl]-pyridin-2-yl}-amine] | 100 | 20
4 | COc1ccc(Nc2nnc(-c3cccnc3NCc3ccc4c(c3)OCO4)[nH]2)c(OC)c1 [Compound 17, Benzo[1,3]dioxol-5-ylmethyl-{3-[5-(2,4-dimethoxy-phenylamino)-4H-[1,2,4]triazol-3-yl]-pyridin-2-yl}-amine] | 10 | 80
1.5 | COc1cccc(Nc2nnc(-c3cccnc3Nc3ccc4cn[nH]c4c3)[nH]2)c1 [Compound 18, (1H-Indazol-6-yl)-{3-[5-(3-methoxy-phenylamino)-4H-[1,2,4]triazol-3-yl]-pyridin-2-yl}-amine] | 1 | 70
30 | COc1cccc(Nc2nnc(-c3cccnc3NCc3cccnc3)o2)c1 [Compound 185, {3-[5-(3-Methoxy-phenylamino)-[1,3,4]oxadiazol-2-yl]-pyridin-2-yl}-pyridin-3-ylmethyl-amine] |  | 40
100 | COc1cccc(Nc2nnc(-c3cccnc3NCc3ccc4c(c3)OCO4)o2)c1 [Compound 186, Benzo[1,3]dioxol-5-ylmethyl-{3-[5-(3-methoxy-phenylamino)-[1,3,4]oxadiazol-2-yl]-pyridin-2-yl}-amine] |  | 42
80 | COc1cc(Nc2nnc(-c3cccnc3Nc3cc(OC)cc(OC)c3)o2)cc(OC)c1 [Compound 187, (3,5-Dimethoxy-phenyl)-{3-[5-(3,5-dimethoxy-phenylamino)-[1,3,4]oxadiazol-2-yl]-pyridin-2-yl}-amine] |  | 48
15 | COc1ccc(Nc2nnc(-c3cccnc3NCc3cccnc3)o2)cc1OC [Compound 190, {3-[5-(3,4-Dimethoxy-phenylamino)-[1,3,4]oxadiazol-2-yl]-pyridin-2-yl}-pyridin-3-ylmethyl-amine] |  | 56
3 | O=C1CCCN1CCCNc1ncccc1-c1nnc(Nc2ccc3c(c2)OCO3)o1 [Compound 194, 1-(3-{3-[5-(Benzo[1,3]dioxol-5-ylamino)-[1,3,4]oxadiazol-2-yl]-pyridin-2-ylamino}-propyl)-pyrrolidin-2-one] |  | 80
15 | c1ccc(-c2nnc(Nc3ccc4c(c3)OCO4)o2)c(NCc2ccncc2)c1 [Compound 225, Benzo[1,3]dioxol-5-yl-(5-{2-[(pyridin-4-ylmethyl)-amino]-phenyl}-[1,3,4]oxadiazol-2-yl)-amine] |  | 91
